The source of these data is patent US20200061026A1, “METHODS AND COMPOSITIONS FOR PREVENTING VECTOR-BORNE DISEASE TRANSMISSION” (The Scripps Research Institute, priority 2016, published 2020).

One data set concerns Aedes aegypti (Cayman). The experiment in a line: Membrane feeding, Aedes aegypti Cayman strain. The class given is in vivo. The note with it: read-out: IC50 [95% CI].
The next data set concerns the target T1, CYP 2C19 (Homo sapiens, UniProt P33261).
T1 construct: individual CYPs in a pool of human liver microsomes; from tissue; host or cells: pooled human liver microsomes
As to the kind of experiment: Reversible CYP inhibition in human liver microsomes, CYP 2C19. The class given is in vitro ADME. To be noted: S-mephenytoin, read-out: Cyp microsome IC50, 2C19. As to the method:
(§1) Reversible inhibition of cytochrome P450s (CYPs) in human liver microsomes was tested using prototypical, isoform-selective activity assays for individual CYPs in a pool of human liver microsomes (i.e., testosterone for CYP 3A4, phenacetin for CYP 1A2, bufuralol for CYP 2D6, S-mephenytoin for CYP 2C19, and diclofenac for CYP 2C9). The assay provides 8-point IC50 determinations in the range of 0.010 to 50 μM drug concentrations for major isoforms of CYP450.

The target of the next data set is T2, CYP 2C9 (Homo sapiens, UniProt P11712).
T2 construct: individual CYPs in a pool of human liver microsomes; from tissue; host or cells: pooled human liver microsomes
As to the kind of experiment: Reversible CYP inhibition in human liver microsomes, CYP 2C9. The format is in vitro ADME. To be noted: diclofenac, read-out: Cyp microsome IC50, 2C9. As to the method:
as §1
For orientation: Liver microsomes are a subcellular fraction often used to study metabolism.

Data set [1] is described as follows: Hepatocyte stability assay, mouse. The format is in vitro ADME. The method, then:
(§2) Example 7. In Vitro Metabolic Stability of Isoxazoline Compounds in cd-1 Mouse, sd Rat, Beagle Dog, Cynomolgus Monkey and Human Cryopreserved Hepatocytes
(§3) Isoxazoline compounds (at 1 μM) were incubated with cryopreserved hepatocytes (0.5×10^6 cells per mL) in duplicates (n=2) at 37° C. using 96-well plate format.
(§4) Time points were 0, 15, 30, 60 and 90 minutes in separate plates and medium control samples without cells at 0 and 90 minutes were also incubated. At each time point the reaction was stopped by adding organic solution containing internal standard (IS).
(§5) Positive controls 7-ethoxycoumarin and 7-hydroxycoumarin were included in parallel.
(§6) The samples were analyzed by LC-MS/MS. Disappearance of the test compound was assessed based on peak area ratios of analyte/IS (no standard curve).
(§7) Intrinsic clearance and t½ values were then calculated.

The nature of data set [2]: Hepatocyte stability assay, dog. The format is in vitro ADME. To be noted: Beagle, hepatocytes. As to the method: as §2, §3, §4, §5, §6, §7
The nature of data set [3]: Hepatocyte stability assay, cynomolgus monkey. The class given is in vitro ADME. To be noted: hepatocytes. As to the method:
as §2, §3, §4, §5, §6, §7

The nature of data set [4]: Hepatocyte stability assay, human. The class given is in vitro ADME. The note with it: hepatocytes. As to the method: as §2, §3, §4, §5, §6, §7
Data set [5] can be described thus: Plasma protein binding (equilibrium dialysis), rat. The class given is in vitro ADME. To be noted: 2 μM. The method, then:
(§8) Frozen plasma (EDTA-K2 as anticoagulant) pooled from multiple individuals of various species was used as a test matrix. The plasma was purchased from commercial vendors or prepared in house from animals. Warfarin was used as a positive control.
(§9) Isoxazoline compounds were spiked into the blank matrix at the final concentration of 2 μM.
(§10) A 150 μL aliquot of matrix sample was added to one side of the chamber in a 96-well equilibrium dialyzer plate (HTD dialysis) and an equal volume of dialysis buffer was added to the other side of the chamber. An aliquot of matrix sample was harvested before the incubation and used as T0 samples for recovery calculation. Triplicate incubations were performed.
(§11) The dialyzer plate was placed in a humidified incubator and rotated slowly for 4 hours at 37° C. After incubation, samples were taken from the matrix side as well as the buffer side. The plasma sample was matched with equal volume of blank buffer; and buffer samples were matched with equal volume of blank plasma. The matrix-matched samples were quenched with a stop solution containing internal standard.
(§12) The samples were analyzed by LC-MS/MS.
(§13) Then, % bound fraction at 4 hours (% bound=1−% unbound) and % recovery in incubates at 4 hours were calculated.
(§14) The stability of compounds in mouse (ms), rat (r), dog (d), cynomolgus monkey (cy), and human (hu) plasma is shown in Table 10 by the percentages of compounds remaining at two hours.

Data set [6] is described as follows: Plasma protein binding (equilibrium dialysis), dog. The format is in vitro ADME. To be noted: 2 μM. The method, then:
as §8, §9, §10, §11, §12, §13, §14

For another data set, the target named is hERG channels (Homo sapiens, UniProt Q12809). The experiment in a line: hERG channel manual patch clamp assay (CHO-K1 cells). The format is cell-based. As to the method:
Cells: Stable CHO-K1 cells expressing hERG channels (from AVIVA Biosciences) were used in the assay.
Patch Clamp recording: The recordings were performed on conventional patch clamp (Axon Multiclamp 700B, Digidata 1440, pCLAMP 10, Molecular Devices Corporation or HEKA EPC10/Patchmaster system, HEKA Elektronik Corporation) at room temperature, using the whole-cell patch clamp techniques. The composition of external solution was (mM): HEPES 10, NaCl 145, KCl 4, CaCl2 2, MgCl2 1, Glucose 10, pH to 7.4 with 1N NaOH, osmolarity to 290-300 mOsm. Filtered and kept at 4° C. The composition of internal solution was (mM): KOH 31.25, KCl 120, CaCl2 5.374, MgCl2 1.75, EGTA 10, HEPES 10, Na2-ATP 4, pH to 7.2 with 1N KOH, osmolarity to 280-290 mOsm. Filtered and kept at −20° C.
For conventional patch clamp, 35 mm culture dishes or recording chambers containing CHO-hERG cells were placed on the stage of an inverted/upright microscope and continuously perfused with external solutions from a perfusion system (RSC-160 Rapid solution Changer, BioLogic or OctaFlow I, ALA Scientific Instruments Inc).
Test compounds were dissolved in 100% DMSO to make stock solutions for each test concentration, and then diluted into external solutions to achieve final concentration for testing. Final DMSO concentration was not more than 0.3%.
Voltage command protocol: From the holding potential of −80 mV, the voltage was first stepped to 60 mV for 850 ms to open hERG channels. Then the voltage was stepped back down to −50 mV for 1275 ms, causing a “rebound” or tail current, which was measured and collected for data analysis. Finally, the voltage was stepped back to the holding potential (−80 mV). This voltage command protocol was repeated every 15000 msec. This command protocol was performed continuously during the test (vehicle control, test compounds).
Compound effect (% inhibition) was determined by difference in current amplitude before and after the application of test compounds. IC50 values were determined from concentration-response curves that were obtained with Hill fitting.
For orientation: The hERG channel carries a current that helps repolarise heart muscle cells.

The nature of another data set: Solubility at pH 6.8. To be noted: pH 6.8, aqueous buffer. The class given is physicochemical.
For data set [7] the following is noted: cited from earlier work.
Data set [8] is described as follows: Brain homogenate binding assay (equilibrium dialysis). Background: Equilibrium dialysis compares concentrations on both sides of a semipermeable membrane.
Description: Briefly, frozen tissue homogenate (homogenized with buffer at a certain volume ratio) was used as a test matrix. The tissue homogenate was purchased from Bioreclamation (Hicksville, N.Y., USA) or prepared by WuXi AppTec.
Isoxazoline compounds were spiked into blank tissue homogenate at the test concentration. Triplicate samples were used.
An appropriate volume of spiked tissue sample was removed before incubation for recovery calculation. An aliquot (e.g., 150 μL) of matrix sample was added to the donor side of the chamber (donor chamber) in a dialyzer plate (HTD dialysis device or RED device) and a certain amount of dialysis buffer was loaded to the other side of the chamber (receiver chamber). Triplicate incubations were performed (or other replicate number according to specific requirement).
The dialyzer plate was placed into a humidified incubator with 5% CO2 and incubated at 37° C. for appointed time (the general incubation time is 4-6 h).
After incubation, samples were removed from the donor side as well as the receiver side.
The samples were matched with appropriate amount of the opposite blank matrix (tissue homogenate or buffer). […]
The samples were analyzed by LC-MS/MS. Test compound concentrations in matrix and buffer samples were assessed based on the peak area ratios (PAR) of analyte/internal standard (no standard curve).
The mark [9] stands for this setting: CD-1, hepatocytes, mouse (ms), 1 μM, read-out: Hepatocyte stability (t½).
Where [10] appears, read: dog (d), 1 μM, read-out: Hepatocyte stability (t½).
Setting [11] is: cynomolgus monkey (cy), 1 μM, read-out: Hepatocyte stability (t½).
The mark [12] stands for this setting: human (hu), 1 μM, read-out: Hepatocyte stability (t½).

Read-outs that look alike come from different tables or passages of the source.

As a reminder, the IC50 is the concentration that inhibits the measured activity by half. One may read the solubility as the dissolved amount per volume that the medium holds.

T1 sequence (P33261 whole entry): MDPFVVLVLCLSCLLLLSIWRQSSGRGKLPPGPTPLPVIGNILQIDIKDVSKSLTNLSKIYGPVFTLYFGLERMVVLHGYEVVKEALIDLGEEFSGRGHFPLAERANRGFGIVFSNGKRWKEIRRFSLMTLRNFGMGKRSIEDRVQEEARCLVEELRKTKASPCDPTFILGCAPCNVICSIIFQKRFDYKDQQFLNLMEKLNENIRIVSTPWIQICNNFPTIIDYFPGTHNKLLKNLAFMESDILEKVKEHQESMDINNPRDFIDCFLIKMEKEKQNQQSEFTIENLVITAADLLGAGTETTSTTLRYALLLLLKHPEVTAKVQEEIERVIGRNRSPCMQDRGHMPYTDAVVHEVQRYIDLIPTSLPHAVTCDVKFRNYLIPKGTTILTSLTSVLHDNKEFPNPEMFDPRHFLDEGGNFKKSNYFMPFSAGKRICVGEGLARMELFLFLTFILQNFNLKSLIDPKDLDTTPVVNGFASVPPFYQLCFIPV
hERG channels, sequence (Q12809 whole entry): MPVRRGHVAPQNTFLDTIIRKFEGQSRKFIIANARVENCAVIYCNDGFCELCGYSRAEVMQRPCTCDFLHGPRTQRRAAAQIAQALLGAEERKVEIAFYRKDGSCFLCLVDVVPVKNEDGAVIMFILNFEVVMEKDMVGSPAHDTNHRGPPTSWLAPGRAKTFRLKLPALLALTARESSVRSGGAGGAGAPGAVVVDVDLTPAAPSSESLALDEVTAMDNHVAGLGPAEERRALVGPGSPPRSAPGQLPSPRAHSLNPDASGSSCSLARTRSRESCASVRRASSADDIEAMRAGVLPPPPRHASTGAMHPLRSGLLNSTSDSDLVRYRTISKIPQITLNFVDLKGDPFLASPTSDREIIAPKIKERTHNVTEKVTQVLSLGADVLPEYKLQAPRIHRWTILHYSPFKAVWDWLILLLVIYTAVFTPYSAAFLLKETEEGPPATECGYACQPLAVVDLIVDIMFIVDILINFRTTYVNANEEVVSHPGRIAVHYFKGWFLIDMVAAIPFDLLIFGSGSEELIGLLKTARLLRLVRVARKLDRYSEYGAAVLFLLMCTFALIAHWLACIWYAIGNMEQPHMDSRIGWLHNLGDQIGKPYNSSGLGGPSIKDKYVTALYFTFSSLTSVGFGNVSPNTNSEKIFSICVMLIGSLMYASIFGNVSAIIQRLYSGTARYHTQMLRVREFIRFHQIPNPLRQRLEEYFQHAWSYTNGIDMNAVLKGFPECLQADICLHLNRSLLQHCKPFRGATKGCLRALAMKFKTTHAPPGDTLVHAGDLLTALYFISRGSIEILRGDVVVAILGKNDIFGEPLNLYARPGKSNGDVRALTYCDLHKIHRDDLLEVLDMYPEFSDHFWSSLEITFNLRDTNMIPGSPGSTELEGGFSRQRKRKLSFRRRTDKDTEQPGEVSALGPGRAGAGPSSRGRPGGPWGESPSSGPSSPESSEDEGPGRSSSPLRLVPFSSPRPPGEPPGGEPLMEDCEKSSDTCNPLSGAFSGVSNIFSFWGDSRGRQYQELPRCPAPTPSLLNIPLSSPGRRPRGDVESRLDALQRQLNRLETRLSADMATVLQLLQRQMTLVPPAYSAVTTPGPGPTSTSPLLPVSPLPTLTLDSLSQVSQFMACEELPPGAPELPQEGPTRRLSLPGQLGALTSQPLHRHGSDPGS
T2 sequence (P11712 whole entry): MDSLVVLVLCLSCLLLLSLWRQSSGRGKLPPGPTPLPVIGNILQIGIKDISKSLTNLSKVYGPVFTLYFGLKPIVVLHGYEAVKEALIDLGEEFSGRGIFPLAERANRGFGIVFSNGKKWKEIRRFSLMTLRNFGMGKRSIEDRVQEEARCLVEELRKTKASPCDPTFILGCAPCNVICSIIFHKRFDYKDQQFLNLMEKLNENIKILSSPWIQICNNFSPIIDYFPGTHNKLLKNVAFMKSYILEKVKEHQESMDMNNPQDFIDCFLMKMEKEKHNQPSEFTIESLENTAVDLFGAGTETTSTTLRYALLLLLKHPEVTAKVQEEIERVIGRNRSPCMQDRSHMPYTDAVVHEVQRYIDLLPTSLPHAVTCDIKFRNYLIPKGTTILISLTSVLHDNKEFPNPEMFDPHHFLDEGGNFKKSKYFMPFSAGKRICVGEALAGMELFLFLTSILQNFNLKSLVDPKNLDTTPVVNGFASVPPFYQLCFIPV

On to `O=C(CNC(=O)c1ccc(C2=NO[C@](c3cc(Cl)cc(C(F)(F)F)c3)(C(F)(F)F)C2)c2ccccc12)NCC(F)(F)F` (racemic) [Afoxolaner, afoxolaner], for which the IC50 with Aedes aegypti (Cayman) (24 h) came to 90.2 nM; at CYP 2C19 it was 3100 nM; at CYP 2C9, 2900 nM. Also, the half-life at 1 μM in [1] (setting [9]), in data set [2] (setting [10]), in data set [3] (setting [11]) and in [4] (setting [12]) was above 3.62 h throughout. For the same molecule, the “Plasma protein % binding” value in [5] (rat (r), 4 hours) was 97.3 (r), %; in data set [6] (dog (d), 4 hours), >99.9 (d, hu) %. Moreover, at hERG channels (at 5 uM), the “hERG inhibition (manual patch)” value is reported as 0.9% ± 2.5%. Moreover, the solubility in “Solubility at pH 6.8” (read-out: Solubility (pH 6.8)) is below 1 µM. The “embryo-fetal development in rats” value in [7] is given as “unaffected”.
As for `O=C(CNC(=O)c1ccc(C2=NO[C@@](c3cc(Cl)cc(Cl)c3)(C(F)(F)F)C2)c2ccccc12)NCC(F)(F)F` [(S)-4-(5-(3,5-dichlorophenyl)-5-(trifluoromethyl)-4,5-dihydroisoxazol-3-yl)-N-(2-oxo-2-((2,2,2-trifluoroethyl)amino)ethyl)-1-naphthamide], the IC50 was 600 nM on CYP 2C19, 1900 nM on CYP 2C9 and 19900 nM on hERG channels. Moreover, the half-life at 1 μM in [1] (CD-1, mouse, hepatocytes) was determined as 0.983 h; in data set [2] (dog), 0.683 h; in [3] (cynomolgus monkey) it was 0.7 h; in data set [4] (human) it was 1.05 h. In addition, the “Plasma protein % binding” value in [5] (rat, 4 h) is >99.9% (ms, r, d, hu); in [6] (dog, 4 h) it was >99.9% (ms, r, d, hu). For the same molecule, the solubility in “Solubility at pH 6.8” is below 1 µM. Besides, the “Brain homogenate % binding” value in data set [8] is above 99.9%.
In the case of `O=C(CNC(=O)c1ccc(C2=NO[C@@](c3cc(Cl)cc(C(F)(F)F)c3)(C(F)(F)F)C2)c2ccccc12)NCC(F)(F)F` [(S)-afoxolaner], the IC50 is 1100 nM at CYP 2C19, 4200 nM on CYP 2C9 and above 30000 nM against hERG channels. Also, the half-life at 1 μM in data set [1] (setting [9]) stood at 1.07 h; in data set [2] (setting [10]) it was 0.533 h; in [3] (setting [11]), 0.833 h; in [4] (setting [12]), 1.1 h. The “Plasma protein % binding” value is listed as >99.9 (ms, r, hu), % in data set [5] (rat (r), 4 hours) and 99.5 (d) % in data set [6] (dog (d), 4 hours). The solubility in “Solubility at pH 6.8” (read-out: Solubility (pH 6.8)) was below 1 µM. In addition, the “Brain homogenate % binding” value in data set [8] is above 99.9%.
On to `Cc1cc(C2=NO[C@](c3cc(Cl)cc(Cl)c3)(C(F)(F)F)C2)ccc1C(=O)NCC(=O)NCC(F)(F)F` [Fluralaner, fluralaner], for which, in the data set with Aedes aegypti (Cayman) (24 hours after the blood meal, Cayman strain), the IC50 came out at 35.8 nM. The “embryo-fetal development in rats” value in data set [7] is recorded as “unaffected”.
